Source: the supplement of paper PMC10307832

Tests used:
Assay in all cases: relative viability (nuclei count vs DMSO), 5 days (fraction); higher = more cells survive
[1] = compound: Cc1ccc2nc(NCCN)c3ncc(C)n3c2c1
Summary of the method: (§1)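 Lung cancer cell lines in 1536-well plates were exposed by pinning to five library-drug doses (not always all listed) √10 apart, following an overnight hold at 37 °C. MetaXpress counted Hoechst-stained nuclei from 4× images taken after 5 days without medium change. Viability is the median ratio of treated-well to vehicle-well nuclei across plates. Plates required control CV below 25% and at least one doubling.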

Salubrinal = compound: O=C(/C=C/c1ccccc1)NC(NC(=S)Nc1cccc2cccnc12)C(Cl)(Cl)Cl [Salubrinal]
Summary of the method: as §1

[2] = compound: Cc1ccc2nc(NCCN)c3ncc(C)n3c2c1 + Cc1nc(NC(=O)N2CCC[C@H]2C(N)=O)sc1-c1ccnc(C(C)(C)C(F)(F)F)c1 [Alpelisib] (partner 2 µM)
Summary of the method: (§2)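 Nuclei were stained with Hoechst during a one-step fixation (final 0.05% Triton X-100, 1% formaldehyde, 1 ug/ml Hoechst) carried out 5 days after dosing, then counted on 4× images. The cells, lung cancer lines in 1536-well plates, had been dosed by pin tool the day after seeding with one drug alone or a fixed anchor-drug dose plus five library-drug doses (not always all listed) in √10 steps. Relative viability is the nuclei count in treated wells divided by that in vehicle wells, and each value is the median of duplicate plates.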

Salubrinal + Pemetrexed = compound: O=C(/C=C/c1ccccc1)NC(NC(=S)Nc1cccc2cccnc12)C(Cl)(Cl)Cl [Salubrinal] + Nc1nc2[nH]cc(CCc3ccc(C(=O)N[C@@H](CCC(=O)O)C(=O)O)cc3)c2c(=O)[nH]1 [Pemetrexed] (partner 0.2 µM)
Summary of the method: as §2

Row | Cell Line | relative viability ([1]; 0.04 µM) | relative viability ([1]; 0.1265 µM) | relative viability ([1]; 0.4 µM) | relative viability ([1]; 1.265 µM) | relative viability ([1]; 4 µM) | relative viability (Salubrinal; 0.08 µM) | relative viability (Salubrinal; 0.253 µM) | relative viability (Salubrinal; 0.8 µM) | relative viability (Salubrinal; 2.53 µM) | relative viability (Salubrinal; 8 µM) | relative viability ([2]; first compound 0.04 µM) | relative viability ([2]; first compound 0.1265 µM) | relative viability ([2]; first compound 0.4 µM) | relative viability ([2]; first compound 1.265 µM) | relative viability ([2]; first compound 4 µM) | relative viability (Salubrinal + Pemetrexed; first compound 0.08 µM) | relative viability (Salubrinal + Pemetrexed; first compound 0.253 µM) | relative viability (Salubrinal + Pemetrexed; first compound 0.8 µM) | relative viability (Salubrinal + Pemetrexed; first compound 2.53 µM) | relative viability (Salubrinal + Pemetrexed; first compound 8 µM)
1 | PC-14 | 1.04 | 0.963 | 0.927 | 0.917 | 0.671 | 1.11 | 0.96 | 1.13 | 1 | 0.862 | 1.03 | 0.893 | 0.92 | 0.896 | 0.806 | 0.114 | 0.154 | 0.147 | 0.124 | 0.108
2 | SK-MES-1 | 1.05 | 1.01 | 0.984 | 1.01 | 0.992 | 1.14 | 0.997 | 1.09 | 0.988 | 0.945 | 0.904 | 0.848 | 0.846 | 0.866 | 0.848 | 0.993 | 0.784 | 1.11 | 0.896 | 0.914
3 | NCI-H2347 | 1.06 | 1.12 | 0.911 | 0.986 | 0.962 | 0.94 | 1.03 | 1.15 | 1.08 | 1.07 | 1.06 | 0.978 | 1.06 | 0.91 | 1.01 | 0.43 | 0.43 | 0.423 | 0.452 | 0.529
4 | NCI-H2228 | 1.15 | 0.992 | 1.03 | 0.915 | 0.838 | 1.23 | 0.757 | 1.21 | 1.04 | 0.968 | 0.626 | 0.639 | 0.974 | 0.832 | 0.613 | 0.334 |  | 0.404 | 0.326 | 0.277
5 | NCI-H1563 | 1.02 | 0.909 | 0.947 | 1.03 | 1.01 | 1.01 | 0.942 | 0.943 | 0.919 | 0.911 | 0.902 | 0.962 | 1.07 | 1.13 | 0.905 | 0.671 | 0.761 | 0.907 | 0.784 | 0.798
6 | EKVX | 1.07 | 0.889 | 0.992 | 0.948 | 0.826 | 1.04 | 0.837 | 1.01 | 1.06 | 1.04 | 0.962 | 0.856 | 0.83 | 0.808 | 0.778 | 0.411 | 0.361 | 0.444 | 0.385 | 0.325
7 | HOP-62 | 0.97 | 1 | 0.827 | 1.04 | 0.984 | 1.01 | 0.981 | 1.11 | 1.06 | 0.98 | 0.981 | 0.946 | 0.942 | 0.667 | 0.975 | 0.244 | 0.267 | 0.317 | 0.315 | 0.331
8 | NCI-H2126 | 1.1 | 0.993 | 0.958 | 0.995 | 0.893 | 1.07 | 0.921 | 1.08 | 1.05 | 0.985 | 0.738 | 0.73 | 0.77 | 0.719 | 0.782 | 0.676 | 0.683 | 0.747 | 0.708 | 0.626
